Source: patent publication US10858357B2, “Water-soluble myosin 2 inhibitors for the treatment of neurological, neuropathic or psychiatric diseases” (PARIS SCIENCES ET LETTRES-QUARTIER LATIN, priority 2016, dated 2020)
Converted amounts (≈) assume the structure as drawn. Where two headings read alike, the source gives them in different places.

Tests used:
[1] = Photostability under 480±10 nm irradiation; type: physicochemical; conditions: 5 μM, 480±10 nm for 0, 5, 10 and 15 minutes
Procedure: Fluorescence emission spectra (λexc=350 nm) were recorded in assay buffer containing 0.1% DMSO applying the inhibitors at 5 μM concentrations. The photoconversion measurements were carried out using 5 μM neurelaxin-A in assay buffer and irradiating the samples at 480±10 nm for 0, 5, 10 and 15 minutes using a Fluorescence Spectrometer (F900, Edinburgh Instruments) equipped with a 450 W Xenon Lamp. Their absorbance spectra were measured at each time point.
Neurelaxin-A's photostability was measured by irradiating the compound in assay buffer at 480±10 nm for 0, 5, 10 and 15 minutes and recorded the absorption spectra afterwards (FIG. 2C).

[2] = test system: Mauthner axon of zebrafish embryos; experiment: Mauthner axon regeneration after photoablation; type: in vivo; conditions: 3 dpf zebrafish embryos
Excerpt: The Mauthner neuron is a giant neuron in the hindbrain of zebrafish embryos, which is a widely used model for studying regeneration. The Mauthner axon of 3 dpf zebrafish embryos was photoablated with two-photon irradiation at 800 nm.

[3] = test system: cannabinoid-induced working memory loss; experiment: Novel object recognition (NOR) test with CP55,940; type: in vivo
Procedure: In this experiment, a novel object recognition (NOR) test was performed.
In this test animals are presented to two objects and it will explore them for a while. After, one of the objects is changed for a new and different one. Under normal circumstances animals will be attracted to the novel object and will spend more time exploring it, by comparison to the older and already known object. Animals with memory deficit will explore both objects equally.
The synthetic cannabinoid CB1R agonist CP55,940 is administrated 1 hour prior to the familiarization step. Thirty minutes prior to the familiarization animals are either treated or not with neurelaxin-A.

[4] = test system: EGFP-α-tubulin H2B-mCherry HeLa Kyoto cells; experiment: HeLa cell toxicity, 12-hour confocal time-lapse imaging; type: cell-based, human; conditions: 50 μM, 12 hours imaging
Procedure: For phototoxicity experiments, confocal time-lapse imaging of HeLa Kyoto H2B-mCherry eGFP-α-tubulin cells for 12 hours was performed in DMEM further supplemented with 25 mM HEPES in order to achieve CO2 independent media. Confocal time-lapse imaging was performed on a Zeiss LSM 710 using a Plan Apo 20×/0.8 objective, with the following parameters: 2% laser intensity at λexc=488 nm, 3% laser intensity at λexc=543 nm, 1.2× zoom, average 4, line step 1, 1000×1000 pixels, 0.35 μm pixel size, 0.65 μs dwell time, 3 slice/z-stack with 7 μm between slices at every 10 minutes.
To test the cytotoxicity of neurelaxin-A in live-cell fluorescence microscopy, time-lapse EGFP-α-tubulin H2B-mCherry labeled HeLa Kyoto cells were imaged in a confocal microscope (FIG. 4a).
Cells were treated with 50 μM neurelaxin-A and imaged for 12 hours applying 3 z-sections every 10 minutes.

spinal cord injury = experiment: Spinal cord complete section, BBB locomotor scoring; type: in vivo, rat; conditions: 10 mM in 10% DMSO/90% aCSF at injury site; from day 7; non-treated stays under 3
Procedure: In this experiment, a complete section of the spinal cord on animals was carried out. Then, neurelaxin A administration was carried out at the injury site, 5-10 min after the injury was performed. This neurelaxin-A administration was carried out via a diluted solution of 10 mM of neurelaxin A in a 10% DMSO/90% aCSF (artificial cerebrospinal fluid) solution, leading to an orange bright precipitate that is slowly soluble into the injury site. Finally, a BBB (Basso, Beattie and Bresnahan) analysis is performed in order to study the sequence of functional locomotor recovery patterns. The scale (0-21) represents sequential recovery stages and categorizes combinations of rat joint movement, hindlimb movements, stepping, forelimb and hind limbcoordination, trunk position and stability, paw placement and tail position.
According to this test, any drug treatment which may increase the BBB scores may be considered neuroprotective in animal models.
In this experiment, treated animals (n=3) were undistinguishable from non-treated animals (n=3). The BBB scoring scale ranges from 0 to 21.

[5] = Water solubility and solution stability in assay buffer; type: physicochemical; conditions: for solution stability at saturation concentration: 0.1 or 1 vol/vol % DMSO in assay buffer; for solubility: pH 7.3, aqueous buffer, kinetic from dmso stock, read-out: saturation concentration (solubility)
Procedure: The solubility and the solution stability of neurelaxin-A, were measured in 0.1 and 1 vol/vol % DMSO at room temperature.
500 μM inhibitor solutions were prepared in assay buffer (40 mM NaCl, 4 mM MgCl2, 20 mM HEPES pH 7.3) containing 0.1 or 1 vol/vol % DMSO.
After 0, 5, 25, 60 and 240 minutes, the samples were centrifuged for 1 minute. Absorption spectra of the supernatants were recorded and the concentrations of the dissolved inhibitors were determined using the extinction coefficient ε^o427=6860 M^−1cm^−1 (FIG. 2A).

[6] = test system: human melanoma (M2) cells; experiment: Inhibition of blebbing of M2 cells (blebbing index); type: cell-based
Procedure: For blebbing index determination, M2 cells were incubated for 30 minutes in PBS in every case prior to the addition of inhibitors, in order to initiate extensive blebbing. Blebbing of the cells was monitored before as well as after inhibitor addition to the cells. DMSO concentration was 0.1 vol/vol % in all experiments. Blebbing index was calculated by summing the initiated blebs in a 5-minute interval (starting at the indicated time points) on a given standard area 17 (whole cells with similar size, diameter=12±1 μm) and normalizing it to the blebbing index prior to inhibitor treatment.
As myosin 2 inhibition blocks blebbing of M2 cells (Straight et al., Science, 2003, 299 (5613), pp 1743-7), the blebbing indices ((Charras, G. T., Yarrow, J. C., Horton, M. A., Mahadevan, L. & Mitchison, T. J. Non-equilibration of hydrostatic pressure in blebbing cells. Nature 435, 365-369, doi:10.1038/nature03550 (2005))) of M2 cells were measured in time, after incubating the cells in neurelaxin-A at different concentrations (FIG. 3C).

Cc1ccc2c(c1)C(=O)C1(O)CCN(c3ccc(N)cc3)C1=N2 (stereo not drawn) [Neurelaxin-A, 1-(4-aminophenyl)-3a-hydroxy-6-methyl-3,3a-dihydro-1H-pyrrolo[2,3-b]quinolin-4(2H)-one]
photostability: absorption spectrum after irradiation [1]: has not been altered
maximum rate of axon growth [2]: 0.6 um/min
time after treatment at which axon regrowth is induced [2]: 1 h
time of treatment at which maximum rate of growth is reached [2]: 2 h
start of axon regrowth post-ablation ([2]; spontaneous regrowth normally after 30 hours): 19 h
NOR test: effect on memory without cannabinoid ([3]; animals non-treated with CP55,940): does not impact negatively the memory
NOR test: memory after cannabinoid exposure ([3]; pre-treated animals, CP55,940 exposure): are not affected by the cannabinoid exposure
signs of toxicity in HeLa Kyoto cells [4]: did not show any signs of toxicity
BBB scoring (spinal cord injury): significant increasing of BBB scoring
solution stability at saturation concentration [5]: remained constant for 4 hours
solution stability at saturation concentration ([5]; listed as neurelaxin-A): stable for several days
solubility ([5]; assay buffer with 0.1 vol/vol % DMSO, 0.1 vol/vol % DMSO in assay buffer pH 7.3, room temperature): ~298 µM (≈ 91.6 µg/mL)
solubility ([5]; assay buffer with 1 vol/vol % DMSO, 1 vol/vol % DMSO in assay buffer pH 7.3, room temperature): ~426 µM (≈ 131 µg/mL)
τ, time constant of suppression of blebbing index ([6]; 5 μM): 25.0 ± 4.3 min
effect on blebbing indices ([6]; 5 μM, within an hour): significant decrease
time within which blebbing completely stopped ([6]; 10 μM): 40 to 60 min
τ, time constant of suppression of blebbing index ([6]; 10 μM): 16.8 ± 1.6 min
time within which blebbing completely stopped ([6]; 25 μM): > 20 min
τ, time constant of suppression of blebbing index ([6]; 25 μM): 9.9 ± 0.3 min
time within which blebbing completely stopped ([6]; 50 μM): > 20 min
τ, time constant of suppression of blebbing index ([6]; 50 μM): 7.8 ± 0.3 min
